{"source": "patent US20090048243A1", "about": "“THERAPEUTIC AGENT FOR ATTENTION-DEFICIT HYPERACTIVITY DISORDER” (MITSUBISHI PHARMA CORPORATION, priority 2005, published 2009)", "key": {"[1]": {"target": "T1, 5-HT2A receptor (Rattus norvegicus, UniProt P14842)", "T1 construct": "A crude synaptosome fraction was separated from the cerebral cortex of Wistar rats; from tissue; host or cells: Wistar rat cerebral cortex, crude synaptosome fraction", "T1 sequence (P14842 whole entry)": "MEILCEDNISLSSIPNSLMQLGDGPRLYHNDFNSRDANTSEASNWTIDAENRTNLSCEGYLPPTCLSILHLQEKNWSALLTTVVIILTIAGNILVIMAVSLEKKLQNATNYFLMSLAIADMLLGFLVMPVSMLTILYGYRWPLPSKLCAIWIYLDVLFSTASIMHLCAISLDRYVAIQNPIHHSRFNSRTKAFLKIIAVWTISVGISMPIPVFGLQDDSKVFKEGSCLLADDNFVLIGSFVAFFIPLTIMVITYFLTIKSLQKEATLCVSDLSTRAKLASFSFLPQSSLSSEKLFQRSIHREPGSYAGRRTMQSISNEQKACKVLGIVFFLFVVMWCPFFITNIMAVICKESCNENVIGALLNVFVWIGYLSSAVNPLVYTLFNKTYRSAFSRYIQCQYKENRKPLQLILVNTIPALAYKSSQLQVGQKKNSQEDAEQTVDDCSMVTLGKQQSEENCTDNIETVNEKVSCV", "assay": "Specific 5-HT2A receptor binding test (tritiated ketanserin, cerebral cortex crude synaptosome fraction)", "details": "Wistar rat cerebral cortex synaptosome; tritiated ketanserin 0.2 nmol/L; 37° C., 20 minutes", "method": "A specific 5-HT2A receptor binding test was performed in accordance with a publicly known method (Molecular Pharmacology, Vol.21, p.301, 1981).\nA crude synaptosome fraction was separated from the cerebral cortex of Wistar rats at 6 to 12 weeks of age (SEAC Yoshitomi), suspended in 50 mmol/L tris-HCl buffer solution (pH 7.7) (Nacalai Tesque, Inc.), and used in the experiments. Next, each test compound at several different concentrations and tritiated ketanserin (final concentration 0.2 nmol/L) (Japan Radioisotope) were added to the synaptosome suspension, and they were reacted at 37° C. for 20 minutes. After the reaction, the reaction liquor was suction-filtered through a Whatman GF/B filter (NeuroScience, Inc.), and the filter was washed with 50 mmol/L tris-HCl buffer solution (pH 7.7), after which radioactivity remaining in the filter was measured using a liquid scintillation counter (Aloka Co., Ltd.). Non-specific binding was determined in the presence of 10^−5 mmol/L mianserin (Sigma Ltd.). 50% inhibitory concentrations were graphically calculated, and inhibition constants (Ki values) were determined."}, "[2]": {"tested_on": "norepinephrine uptake into mouse cerebral synaptosome", "assay": "Norepinephrine uptake inhibitory action in crude synaptosome fraction", "format": "biochemical", "details": "male ddy mouse hyppocampus synaptosome; tritiated norepinephrine; 37° C., 10 minutes; read-out: 50% inhibitory concentration (IC50) for norepinephrine uptake into mouse cerebral synaptosome", "method": "Using a publicly known method (Journal of Pharmacology and Experimental Therapeutics, Vol.165, p.78, 1969) with partial modification, norepinephrine uptake inhibitory action was measured.\nA crude synaptosome fraction was separated from the hyppocampus of a male ddy mouse, suspended in Krebs-Henseleit buffer solution (pH 7.4), and used in the experiments. Next, each test compound at several different concentrations was added to the synaptosome suspension and pre-incubated for 5 minutes, after which tritiated norepinephrine (Japan Radioisotope) was added to the reaction liquor, and they were reacted at 37° C. for 10 minutes. After the reaction, the reaction liquor was suction-filtered through a Whatman GF/B filter (NeuroScience, Inc.), and the filter was washed with Krebs-Henseleit buffer solution (pH 7.4), after which radioactivity remaining in the filter was measured using a liquid scintillation counter (Packard company, 3380 model). Norepinephrine concentration dependent uptake was obtained by subtracting the uptake at 0° C. from the uptake at 37° C. 50% inhibitory concentrations were graphically calculated, and inhibition constants (Ki values) were determined."}, "[3]": {"tested_on": "rats with juvenile dopamine neulolysis due to 6-OH-DA treatment", "assay": "Suppressive effect on increased motor activity in rats with juvenile dopamine neulolysis due to 6-OH-DA treatment", "format": "in vivo, rat", "details": "for ED50: Rattus norvegicus, read-out: ED50 for the suppression of increased motor activity due to the 6-OH-DA treatment as 100%; for Effect on increased motor activity due to the 6-OH-DA treatment: compound A 1, 3 or 10 mg/kg, Atomoxetine 1, 3, 10 or 30 mg/kg, vs 0.5% HPMC control", "method": "Suppressive effect on increased motor activity in rats with juvenile dopamine neulolysis due to 6-OH-DA treatment Male SD rats (Charles River Japan) were pre-treated with desipramine (Sigma Ltd.) in accordance with the method of Zhang et al. (Neuropsychopharmacology 2001 November;25(5):624-32) on day 5 after birth, after which 6-hydroxydopamine (hereinafter referred to as 6-OH-DA) (Sigma Ltd.) was administered to the cerebral ventricle on one side. During 12 to 18 days after birth, acclimation to a motor activity measurement apparatus (Toyo Sangyo) was performed three times; on day 19 after birth, motor activity was measured and the animals were grouped. […] For control, 0.5% HPMC (hydroxypropylmethylcellulose) was orally administered."}, "[4]": {"tested_on": "normal rats", "assay": "Effect on motor activity in normal rats", "format": "in vivo, rat", "details": "oral (FIG. 1-B)"}}, "note": "Structures can show the parent of a compound that is named as a salt. Where two headings read alike, the source gives them in different places.", "data": [{"molecule": "c1csc(Cc2ccccc2OCC2CNCCO2)c1", "note": "(racemic) [teniloxazine, (±)-2-[[o-(2-thenyl)phenoxy]methyl]morpholine maleic acid salt, reference compound]", "values": [{"measurement": "Ki", "setting": "[1]", "result": 0.049, "unit": "µM"}, {"measurement": "IC50", "setting": "[2]", "result": 0.012, "unit": "µM"}]}, {"molecule": "CNCCC(Oc1ccccc1C)c1ccccc1.Cl", "note": "(single isomer, unassigned; (-)) [Atomoxetine, (−)-N-methyl-3-((2-methylphenyl)oxy)-3-phenyl-1-aminopropane hydrochloride, reference compound]", "values": [{"measurement": "ED50", "setting": "[3]; po", "result": 24, "unit": "mg/kg"}, {"measurement": "Effect on increased motor activity due to the 6-OH-DA treatment", "setting": "[3]; oral", "result": "dose-dependently suppressed, but no significant suppression was observed"}]}, {"molecule": "c1csc(Cc2ccccc2OC[C@H]2CNCCO2)c1", "note": "[B, R-2-[[o-(2-thenyl)phenoxy]methyl]morpholine maleic acid salt]", "values": [{"measurement": "Ki", "setting": "[1]", "result": 1, "unit": "µM"}, {"measurement": "IC50", "setting": "[2]", "result": 0.033, "unit": "µM"}]}, {"molecule": "c1csc(Cc2ccccc2OC[C@@H]2CNCCO2)c1", "note": "[compound A, S-2-[[o-(2-thenyl)phenoxy]methyl]morpholine maleic acid salt]", "values": [{"measurement": "ED50", "setting": "[3]; oral, motor activity during 30 minutes following 1 hour after administration, linear regression", "result": 1.7, "unit": "mg/kg"}, {"measurement": "Dose from which a significant difference in suppression of increased motor activity was observed", "setting": "[3]; oral, P<0.01 versus control (Dunnett method)", "result": "≥ 3", "unit": "mg/kg"}, {"measurement": "Effect on increased motor activity due to the 6-OH-DA treatment", "setting": "[3]; oral", "result": "dose-dependently inhibited"}, {"measurement": "Suppression of motor activity in normal rats", "setting": "[4]", "result": "no significant suppression of motor activity was observed"}, {"measurement": "Ki", "setting": "[1]", "result": 0.026, "unit": "µM"}, {"measurement": "IC50", "setting": "[2]", "result": 0.0026, "unit": "µM"}]}]}
